{"source": "paper PMC2932438", "about": "(Journal of pharmaceutical and biomedical analysis, 2010)", "key": {"ERRα": {"system": "ERRα", "conditions": "cited from earlier work"}, "T98G glioma cell line": {"system": "T98G glioma cell line", "experiment": "MTS proliferation assay", "assay_type": "cell-based", "conditions": "Homo sapiens, 48 h, read-out: IC50 values T98G cell line"}, "[1]": {"target": "T1, immobilized ERRα ligand binding domain (Homo sapiens, UniProt P11474)", "T1 sequence (P11474 193-421 limits assumed)": "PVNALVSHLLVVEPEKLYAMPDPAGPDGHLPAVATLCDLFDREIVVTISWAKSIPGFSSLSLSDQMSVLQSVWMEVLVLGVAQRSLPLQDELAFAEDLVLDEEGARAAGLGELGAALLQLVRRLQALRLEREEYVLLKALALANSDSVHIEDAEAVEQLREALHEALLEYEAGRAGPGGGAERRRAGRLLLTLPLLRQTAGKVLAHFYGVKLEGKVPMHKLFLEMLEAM", "experiment": "Retention on the ERRα column", "conditions": "data not shown"}, "ERRγ": {"target": "ERRγ", "conditions": "cited from earlier work"}, "[2]": {"target": "T2, immobilized ERRγ ligand binding domain (Homo sapiens, UniProt P62508)", "T2 sequence (P62508 233-457 limits assumed)": "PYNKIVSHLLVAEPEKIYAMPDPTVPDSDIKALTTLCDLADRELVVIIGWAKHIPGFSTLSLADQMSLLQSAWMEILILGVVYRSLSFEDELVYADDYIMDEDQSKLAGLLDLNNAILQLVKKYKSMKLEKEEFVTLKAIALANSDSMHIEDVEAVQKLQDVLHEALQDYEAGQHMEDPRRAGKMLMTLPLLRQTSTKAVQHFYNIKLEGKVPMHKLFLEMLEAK", "experiment": "Non-linear chromatography"}}, "data": [{"smiles": "CC/C(=C(\\c1ccccc1)c1ccc(OCCN(C)C)cc1)c1ccccc1", "note": "[Tamoxifen]", "values": [{"measurement": "affinity for the ERRα", "setting": "ERRα", "value": "no affinity"}]}, {"smiles": "CC/C(=C(\\c1ccc(O)cc1)c1ccc(OCCN(C)C)cc1)c1ccccc1", "note": "[4-hydroxy tamoxifen]", "values": [{"measurement": "IC50", "setting": "T98G glioma cell line", "value": 14500, "unit": "nM"}, {"measurement": "affinity for the ERRα", "setting": "ERRα", "value": "no affinity"}, {"measurement": "specific retention on the ERRα column", "setting": "[1]", "value": "not specifically retained"}, {"measurement": "Ki", "setting": "ERRγ", "value": 75, "unit": "nM"}]}, {"smiles": "CC/C(=C(\\c1ccc(O)cc1)c1ccc(OCCNC)cc1)c1ccccc1", "note": "[Endoxifen]", "values": [{"measurement": "Kd", "setting": "[2]", "value": 43.2, "unit": "nM"}, {"measurement": "IC50", "setting": "T98G glioma cell line", "value": 3400, "unit": "nM"}, {"measurement": "affinity for the ERRα", "setting": "ERRα", "value": "no affinity"}, {"measurement": "specific retention on the ERRα column", "setting": "[1]", "value": "not specifically retained"}]}]}
